The target in experiment [1] is T1, human TEAD2 (amino acids 217-447) (Homo sapiens, UniProt Q15562).
T1 construct: human TEAD2 (amino acids 217-447); His-tag (N); purchased Proteros biostructures PR-0365; host or cells: E. coli
The experiment in a line: Thermal shift assay (TSA). The experiment is classed as binding. The conditions noted are these: 3 μM recombinant TEAD2, compound 7 μM, shift vs DMSO control. As for the experimental part:
The thermal shift assay (TSA) was utilized to characterize target engagement in vitro based on ligand-dependent thermal stabilization of the protein. N-terminally His-tagged human TEAD2 (amino acids 217-447) expressed and purified from E. coli was purchased from Proteros biostructures (cat no. PR-0365). The melting reactions were performed in white, 96 well qPCR plates (Roche Diagnostics, cat. no. 04 729 692 001) in 20 mM HEPES pH 7, 100 mM NaCl in the presence of 4×SYPRO orange (Sigma, cat. no. S5692). Each well contained 3 μM recombinant TEAD2 and either DMSO (control) or experimental compounds at a final concentration of 7 μM. The total volume was 20 μL and the final DMSO concentration was 1%. The plate was sealed and analyzed in a LightCycler 480 II (Roche Diagnostics) by continuously reading the fluorescence using the 465-580 nm filter set while heating from 25° C. to 95° C. using a linear gradient of 1° C./min. Melting temperatures were determined by numerical differentiation using the LightCycler Thermal Shift Analysis software (Roche Diagnostics). The shifts in melting temperature caused by experimental compounds compared to the control are expressed as ΔTm (Table 2).

The subject of experiment [2] is TEAD reporter gene activity. The experiment is described as follows: TEAD reporter gene assay (MCF7 TEAD reporter cell line). The conditions noted are these: Homo sapiens; TEAD luciferase reporter in MCF7 cells, 24 hours; read-out: IC50 TEAD RGA (converted). The experiment is classed as cell-based. From the text: A TEAD reporter cell line was purchased from BPS Bioscience (cat. no. 60618). It contains the firefly luciferase gene under control of TEAD responsive elements stably integrated into the human breast cancer MCF7 cells. In proliferating cells, a basal level of unphosphorylated YAP/TAZ resides in the nucleus and drives the TEAD-dependent expression of the luciferase reporter. The cells were cultivated as recommended by the supplier. Inhibition of TEAD reporter gene activity by experimental compounds was measured using white, clear-bottom, 96 well cell culture plates (Greiner Bio-One, cat. no. 655098). The cells were seeded at a density of 20,000 cells per well in 100 μL growth medium and the plates were incubated overnight at 37° C. with 5% CO2 prior to treatment. Experimental compounds were serially diluted in DMSO to 200× the desired final concentrations. 0.5 μL aliquots of DMSO or the test samples were then mixed into the wells and the cells were further incubated for 24 hours. Luminescence was then measured on a Synergy 4 reader (BioTek) using the ONE-Glo Luciferase Assay System (Promega, cat. no. E6120) according to the manufacturer's instructions. Relative inhibition values were calculated by normalizing the raw data using DMSO-treated cells (0% inhibition) and wells devoid of cells (100% inhibition). IC50 values were calculated by fitting concentration-response data to a sigmoidal 4-parameter logistic model.
A general note: Reporter assays use an easily measured gene product as a stand-in for the process of interest.

T1 sequence (Q15562 217-447): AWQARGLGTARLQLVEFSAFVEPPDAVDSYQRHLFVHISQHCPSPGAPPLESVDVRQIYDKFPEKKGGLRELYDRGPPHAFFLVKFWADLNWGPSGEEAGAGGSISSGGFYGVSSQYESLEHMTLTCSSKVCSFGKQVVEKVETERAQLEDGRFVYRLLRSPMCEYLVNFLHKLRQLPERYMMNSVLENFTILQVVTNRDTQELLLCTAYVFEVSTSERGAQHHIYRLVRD

Regarding `O=c1[nH]c(-c2cccnc2Nc2ccc(C(F)(F)F)cc2)no1` [Example 1, 3-[2-[4-(trifluoromethyl)anilino]-3-pyridyl]-4H-1,2,4-oxadiazol-5-one], the ΔTm – broadly, the shift of the melting midpoint relative to a reference – at 7 µM in experiment [1] was 9.9 °C. For the same molecule, the IC50 – broadly, the concentration that inhibits the measured activity by half – in experiment [2] was 39 nM.
Consider `O=c1[nH]c(-c2nccnc2Nc2ccc(OC(F)(F)F)cc2)no1` [Example 3, 3-[3-[4-(trifluoromethoxy)anilino]pyrazin-2-yl]-4H-1,2,4-oxadiazol-5-one], for which, in experiment [1], the ΔTm at 7 µM turned out to be 11.5 °C. Besides, in experiment [2], the IC50 is 90 nM.
The matching figures for `Nc1cnc(Nc2ccc(C(F)(F)F)cc2)c(-c2noc(=O)[nH]2)n1` [Example 4, 3-[6-amino-3-[4-(trifluoromethyl)anilino]pyrazin-2-yl]-4H-1,2,4-oxadiazol-5-one]: 2 °C and 85 nM.
Consider `COc1cnc(Nc2ccc(C(F)(F)F)cc2)c(-c2noc(=O)[nH]2)n1` [Example 5, 3-[6-methoxy-3-[4-(trifluoromethyl)anilino]pyrazin-2-yl]-4H-1,2,4-oxadiazol-5-one], for which, in experiment [1], the ΔTm at 7 µM was found to be 4.5 °C. Further, the IC50 in experiment [2] is 117 nM.
As to `O=c1[nH]c(-c2nc(CO)cnc2Nc2ccc(C(F)(F)F)cc2)no1` [Example 6, 3-[6-(hydroxymethyl)-3-[4-(trifluoromethyl)anilino]pyrazin-2-yl]-4H-1,2,4-oxadiazol-5-one], the ΔTm at 7 µM in experiment [1] was found to be 5 °C. Also, the half-inhibitory concentration (IC50) in experiment [2] was 499 nM.
In the case of `NCCc1cnc(Nc2ccc(C(F)(F)F)cc2)c(-c2noc(=O)[nH]2)n1` [Example 7, 3-[6-(2-aminoethyl)-3-[4-(trifluoromethyl)anilino]pyrazin-2-yl]-4H-1,2,4-oxadiazol-5-one], the ΔTm at 7 µM in experiment [1] is 0.5 °C. For the same molecule, in experiment [2], the IC50 is 2840 nM.
For `O=c1[nH]c(-c2nccnc2Nc2ccc(OC(F)(F)F)cc2Cl)no1` [Example 8, 3-[3-[2-chloro-4-(trifluoromethoxy)anilino]pyrazin-2-yl]-4H-1,2,4-oxadiazol-5-one], the ΔTm at 7 µM in experiment [1] stood at 7.5 °C. In addition, the IC50 in experiment [2] is 1800 nM.
Take `O=c1[nH]c(-c2ncccc2Nc2ccc(C(F)(F)F)cc2)no1` [Example 9, 3-[3-[4-(trifluoromethyl)anilino]-2-pyridyl]-4H-1,2,4-oxadiazol-5-one]: in experiment [1], the ΔTm at 7 µM was found to be 9.2 °C. In addition, in experiment [2], the IC50 is 52 nM.
Taken in the same sequence, the figures for `O=c1[nH]c(-c2cc(C(F)(F)F)cnc2Nc2ccc(C(F)(F)F)cc2)no1` [Example 10, 3-[5-(trifluoromethyl)-2-[4-(trifluoromethyl)anilino]-3-pyridyl]-4H-1,2,4-oxadiazol-5-one] were 10.1 °C and 374 nM.
As for `COc1cnc(-c2noc(=O)[nH]2)c(Nc2ccc(C(F)(F)F)cc2)n1` [Example 12, 3-[5-methoxy-3-[4-(trifluoromethyl)anilino]pyrazin-2-yl]-4H-1,2,4-oxadiazol-5-one], the ΔTm at 7 µM in experiment [1] came to 7.5 °C. Further, in experiment [2], the IC50 is 44 nM.
The matching figures for `O=c1[nH]c(-c2c(F)ccnc2Nc2ccc(C(F)(F)F)cc2)no1` [Example 13, 3-[4-fluoro-2-[4-(trifluoromethyl)anilino]-3-pyridyl]-4H-1,2,4-oxadiazol-5-one]: 10.3 °C and 95 nM.
`O=c1[nH]c(-c2nccnc2Nc2ccc(OCC3CC3)cc2)no1` [Example 14, 3-[3-[4-(cyclopropylmethoxy)anilino]pyrazin-2-yl]-4H-1,2,4-oxadiazol-5-one]: in experiment [1], the ΔTm at 7 µM is 9 °C. Moreover, the IC50 in experiment [2] was 2770 nM.
Consider `CC(C)(C)c1ccc(Nc2nccnc2-c2noc(=O)[nH]2)cc1` [Example 15, 3-[3-(4-tert-butylanilino)pyrazin-2-yl]-4H-1,2,4-oxadiazol-5-one], for which the ΔTm at 7 µM in experiment [1] turned out to be 11.8 °C. The IC50 in experiment [2] was 72 nM.
For `CC(C)c1ccc(Nc2nccnc2-c2noc(=O)[nH]2)cc1` [Example 16, 3-[3-(4-isopropylanilino)pyrazin-2-yl]-4H-1,2,4-oxadiazol-5-one], in experiment [1], the ΔTm at 7 µM worked out at 11.1 °C. The concentration for half-maximal inhibition (IC50) in experiment [2] is 552 nM.
